Measurements as given in patent US4723039A, “Phenylacetaldehydes substituted by basic groups, their preparation and drugs containing these compounds” (BASF Aktiengesellschaft, priority 1985, dated 1988).
Structures can show the parent of a compound that is named as a salt.

Experiments:
blood pressure = experiment: Hypotensive action in anesthetized rats; assay type: in vivo, Sprague-Dawley rat; conditions: anesthetized rat; for Reduction in blood pressure, i.v., R.A.: verapamil = 1.0; for ED20: iv, 20% decrease in blood pressure, read-out: Reduction in blood pressure ED 20% i.v.
Experimental: The blood pressure was measured in the carotid artery. The substances were administered intravenously into the jugular vein. The dose which produces a 20% decrease in blood pressure was calculated as the ED 20%, from the linear regression of log dose (mg/kg) and relative decrease in blood pressure (Δ%).

systolic blood pressure = experiment: Antihypertensive action in spontaneously hypertensive rats; assay type: in vivo, spontaneously hypertensive male Okamoto rat; conditions: for Reduction in blood pressure, p.o., R.A. / ED20: SH rat, p.o.; for Reduction in blood pressure, p.o., R.A.: verapamil = 1.00; for ED20: po, 2 hours after administration, 20% reduction in systolic pressure, read-out: Reduction in blood pressure ED 20% p.o.
Experimental: To determine the antihypertensive action, the substances were administered orally to spontaneously hypertensive male Okamoto rats (4-8 animals/dose, weight 270-360 g). The systolic blood pressure was measured noninvasively on the rat's tail with the aid of piezoelectric transducers, before and 2 hours after administration. The dose which reduces the systolic pressure by 20%, relative to the values for untreated control animals, was determined as the ED 20%.

[1] = tested on: Histamine-induced bronchospasm; experiment: Broncholytic action, histamine-induced bronchospasm; assay type: in vivo; conditions: guinea pig, intravenous; for ED75: Cavia porcellus, 75% reduction in bronchospasms, read-out: ED 75% histamine-induced bronchospasm; for Broncholytic activity compared with verapamil, histamine-induced (in words): text does not separate the inducers
Text: (§1) The animals were artificially ventilated using a Starling pump.

[2] = tested on: Acetylcholine-induced bronchospasm; experiment: Broncholytic action, acetylcholine-induced bronchospasm; assay type: in vivo; conditions: guinea pig, intravenous; for ED75: Cavia porcellus, 75% reduction in bronchospasms, read-out: ED 75% acetylcholine-induced bronchospasm; for Broncholytic activity compared with verapamil, acetylcholine-induced (in words): text does not separate the inducers
Text: as §1

[3] = tested on: isolated spiral strips of aorta; experiment: Calcium-antagonistic action in isolated spiral strips of aorta; set-up: species or system Sprague-Dawley rat; conditions: in vitro; for EC50: Rattus norvegicus, 50% inhibition of the effect of 0.5 mM Ca++, K-depolarized strips, read-out: Ca-antagonistic action EC 50%; for Ca-antagonistic activity compared with verapamil (in words): rat aorta strips
Experimental: The Ca-antagonistic action was tested on spiral strips of aorta of male and female Sprague-Dawley rats weighing from 200 to 300 g.
The animals were sacrificed with ether, and the thorax and thoracic aorta were removed. A maximum of 6 spiral strips about 2 mm wide and 2 cm long were used per animal.
The strips of aorta were suspended in a modified tyrode solution at 37° C. and subjected to an initial tension with a load of 1.5 g and, after a relaxation time of about 1 hour, Ca was removed by keeping them for 5 minutes in Ca-free tyrode solution with the addition of 0.2 mM of Na EDTA.
The Ca-free strips of vessel were depolarized with K-rich tyrode solution for 10 minutes. Contraction was induced by a CaCl2 concentration of 0.5 mM. After 15 minutes, Ca was again removed from the strips of vessel by means of a Ca-free tyrode solution containing 0.2 mM of Na EDTA.
Depolarization was then effected again for 10 minutes with K-rich tyrode solution, after which 0.05 ml of the test substance was added. After the test substance had been allowed to act for 15 minutes, CaCl2 was again added in a concentration of 0.5 mM in order to check whether the test substance has a Ca-antagonistic action. Inhibition of the effect of 0.5 mM Ca^++ by the antagonistic substance is stated as a percentage.

[4] = tested on: secretion of gastric acid; experiment: Inhibition of secretion of gastric acid; assay type: in vivo, Sprague-Dawley rat (female); conditions: rat, oral; for ED (0.75 pH units): 1 h, dose increasing gastric mucosal surface pH by 0.75 pH units, read-out: Acid secretion-inhibiting effect ED 0.75; for Gastric acid secretion-inhibiting dose relative to verapamil: fraction of the dose required of verapamil
Experimental: Inhibition of the secretion of gastric acid is evident from an increase in the pH of the surface of the gastric mucous membrane. For this measurement, groups of from 5 to 10 female Sprague-Dawley rats weighing 160-190 g, which had remained without food for 48 hours (water ad libitum), were pretreated with different doses of the test substances, administered orally. […] The dose which produces an increase in the pH by 0.75 pH units is determined as the ED 0.75, from the linear regression of log dose and the increase in the pH.

[5] = tested on: lesions of the gastric mucous membrane; experiment: Cytoprotective action (ethanol-induced gastric lesions); assay type: in vivo, Sprague-Dawley rat (female); conditions: rat, oral; for ED50: dose reducing lesions by 50%, read-out: Cytoprotective effect ED 50%
Experimental: The cytoprotective action was determined on groups of 8 female Sprague-Dawley rats weighing 160-190 g, the rats having received no food for 48 hours (water ad libitum) and having been pretreated with different doses of the test substances, administered orally. 1 hour later, 10 ml/kg of 100% ethanol were administered orally to the animals. After a further hour, the animals were sacrificed by inhalation of CO2, the stomach was removed and the intensity of the lesions was assessed on the basis of the following scheme:
0=unchanged mucous membrane
1=a few areas of reddening which are narrow, elongated or small
2=reddening over broad, elongated or large interrupted areas
3=pronounced reddening which colors virtually the entire mucous membrane of the glandular stomach.

[6] = tested on: ulcerous lesions on the mucous membrane; experiment: Antiulcerous action (reserpine/indomethacin-induced gastric ulceration); assay type: in vivo, Sprague-Dawley rat (female); conditions: rat, oral; for ED50: dose reducing ulcerous area by 50%, read-out: Antiulcerous effect ED 50%
Experimental: To investigate the antiulcerous action, groups of 10 female Sprague-Dawley rats weighing 160-180 g received 1 mg/kg of reserpine, administered intraperitoneally, and thereafter remained without food for 18 hours (water ad libitum). […] Thereafter, they were kept for 6 hours at 8° C. and then sacrificed. The stomach was removed and the area of the ulcerous lesions on the mucous membrane was determined.

Structure (SMILES)	EC50 [3] [nM]	ED75 [1] [mg/kg]	Broncholytic activity compared with verapamil, histamine-induced (in words) [1]	ED75 [2] [mg/kg]	Broncholytic activity compared with verapamil, acetylcholine-induced (in words) [2]	ED (0.75 pH units) [4] [mg/kg]	Ca-antagonistic activity compared with verapamil (in words) [3]	other results
CC(C)[C@@](C=O)(CCCN(C)CCc1ccccc1)c1ccccc1 [Example 2, (S)-2-[3-[(Phenylethyl)-methylamino]-propyl]-2-isopropylphenylacetaldehyde hydrochloride]	–	–	–	–	–	2	–	Gastric acid secretion-inhibiting dose relative to verapamil [4]: one-fifth; ED50 [5]: 9.4 mg/kg; ED50 [6]: 12.2 mg/kg
COc1ccc(CCN(C)CCCC(C=O)(c2cc(OC)c(OC)c(OC)c2)C(C)C)cc1OC (stereo not drawn) [Example 10, 2-[3-[3,4-Dimethoxyphenylethyl)-methylamino]-propyl]-2-isopropyl-3,4,5-trimethoxyphenylacetaldehyde hydrogen oxalate]	19	–	–	–	–	–	substantially higher activity	–
CC(C)[C@](C=O)(CCCN(C)CCc1ccccc1)c1ccccc1 [Example 3, (R)-2-[3-[(Phenylethyl)-methylamino]-propyl]-2-isopropylphenylacetaldehyde hydrochloride]	–	–	–	–	–	2.1	–	Gastric acid secretion-inhibiting dose relative to verapamil [4]: one-fifth; ED50 [5]: 8.3 mg/kg; ED50 [6]: 3.8 mg/kg
COc1ccc(CCN(C)CCCC(C=O)(c2ccc(OC)c(OC)c2)C(C)C)cc1OC (stereo not drawn) [Example 8, 2-[3-[(3,4-Dimethoxyphenylethyl)-methylamino]-propyl]-2-isopropyl-3,4-dimethoxyphenylacetaldehyde]	–	0.38	substantially higher activity	0.23	substantially higher activity	–	–	–
COc1ccc(CCN(C)CCCC(C#N)(c2ccc(OC)c(OC)c2)C(C)C)cc1OC (stereo not drawn) [Verapamil, verapamil, reference compound]	35	1.3	–	0.56	–	10.5	–	Cytoprotective effect ED 50% (no effect) [5]: (2); Antiulcerous effect ED 50% (no effect) [6]: (2); Reduction in blood pressure, i.v., R.A. (blood pressure): 1.0; ED20 (blood pressure; i.v.): 0.34 mg/kg; Reduction in blood pressure, p.o., R.A. (systolic blood pressure): 1.00; ED20 (systolic blood pressure): 25 mg/kg
COc1cccc(CCN(C)CCCC(C=O)(c2ccc(OC)c(OC)c2)C(C)C)c1 (stereo not drawn) [Example 6, 2-[3-[(3-Methoxyphenylethyl)-methylamino]-propyl]-2-isopropyl-3,4-dimethoxyphenylacetaldehyde]	–	0.59	substantially higher activity	0.39	substantially higher activity	–	–	–

The next lines start with results.

EC50 [3] [nM]	Structure (SMILES)	ED75 [1] [mg/kg]	Broncholytic activity compared with verapamil, histamine-induced (in words) [1]	ED75 [2] [mg/kg]	Broncholytic activity compared with verapamil, acetylcholine-induced (in words) [2]	ED (0.75 pH units) [4] [mg/kg]	Ca-antagonistic activity compared with verapamil (in words) [3]	other results
32	CCOc1cc(CCN(C)CCCC(C=O)(c2cc(OCC)cc(OCC)c2)C(C)C)cc(OCC)c1 (stereo not drawn) [Example 12, 2-[3-[(3,5-Diethoxyphenylethyl)-methylamino]-propyl]1-2-isopropyl-3,5-diethoxyphenylacetaldehyde hydrogen oxalate]	0.65	substantially higher activity	0.27	substantially higher activity	–	–	Reduction in blood pressure, i.v., R.A. (blood pressure): 1.13; Reduction of blood pressure compared with verapamil (in words) (blood pressure; i.v.): reduces the blood pressure to a somewhat greater extent than verapamil; ED20 (blood pressure; i.v.): 0.3 mg/kg; Reduction in blood pressure, p.o., R.A. (systolic blood pressure): 6.25; Blood pressure reducing dose, times smaller compared with verapamil (systolic blood pressure; conscious spontaneously hypertensive rats, oral): 6.3 times; ED20 (systolic blood pressure): 4 mg/kg
22	COc1cccc(CCN(C)CCCC(C=O)(c2cccc(OC)c2)C(C)C)c1 (stereo not drawn) [Example 7, 2-[3-[(3-Methoxyphenylethyl)-methylamino]-propyl]-2-isopropyl-3-methoxyphenylacetaldehyde]	0.61	substantially higher activity	0.67	substantially higher activity	–	–	–
12	COc1cc(CCN(C)CCCC(C=O)(c2cc(OC)cc(OC)c2)C(C)C)cc(OC)c1 (stereo not drawn) [Example 11, 2-[3-[(3,5-Dimethoxyphenylethyl)-methylamino]-propyl]-2-isopropyl-3,5-dimethoxyphenylacetaldehyde hydrogen oxalate]	–	–	–	–	–	substantially higher activity	–
1.2	COc1cccc(CCN(C)CCCC(C=O)(c2cc(OC)c(OC)c(OC)c2)C(C)C)c1 (stereo not drawn) [Example 9, 2-[3-[(3-Methoxyphenylethyl)-methylamino]-propyl]-2-isopropyl-3,4,5-trimethoxyphenylacetaldehyde hydrogen oxalate]	–	–	–	–	–	substantially higher activity	–
